Laboratory results: patent publication US7671077B2, “Neuroprotective small organic molecules, compositions and uses related thereto” (priority 2004, dated 2010)
“Also recorded” adds a separate entry of the source. Each block holds one molecule with its values, some of them ahead of it.

Assays:
[1] = system: TPH^+ cells; test: TPH immunostaining in primary hindbrain cultures; format: cell-based, rat; conditions: hindbrain culture, DIV 13
[2] = system: TH^+ cells; test: Staining for apoptotic DA neurons (TH / Hoechst 33258); format: cell-based, rat; conditions: 2.5 μM added at plating; DIV 13
Procedure: (§1) Primary midbrain cultures were prepared from rat embryo ventral mesencephalon as described previously by Lin et al (1994). In brief, rostral mesencephalic tegmentum of embryonic day 16 rat embryos was collected in DMEM/F12 (Hyclone SH30023.01) containing 2 mM glutamine on ice, The tissue was treated with 0.1% trypsin in Hanks' balanced salt solution (HBSS, Gibco 14175-095) for 15 min at 37° C. and dissociated mechanically by mild trituration with a fire-polished glass pipet in growth medium plus 2% heat-inactivated fetal bovine serum (FBS). […]
To measure the percent of DA neurons undergoing apoptosis after different treatments, DIV-13 cultures (which were medium changed twice on DIV 5 and 9) were first stained with an anti-TH antibody and with FITC-conjugated goat anti-mouse secondary antibody (1:200, Jackson Lab) for 1 h at room temperature to label DA neurons. […] Cells were viewed under an inverted fluorescence microscope (Olympus) equipped with appropriate filters. Healthy and apoptotic TH^+ cells TH^+ cell numbers were counted in the entire area of each well by an observer who is blinded to the treatment.

[3] = system: midbrain dopaminergic neurons; test: Dopamine (DA) uptake assay in primary midbrain cultures; format: cell-based, rat; conditions: for activity at 2.5 µM: compound concentration 2.5 μM; for activity at 1.25 µM: compound concentration 1.25 μM
Procedure: (§2) Primary midbrain cultures were prepared from rat embryo ventral mesencephalon as described previously by Lin et al (1994). In brief, rostral mesencephalic tegmentum of embryonic day 16 rat embryos was collected in DMEM/F12 (Hyclone SH30023.01) containing 2 mM glutamine on ice, The tissue was treated with 0.1% trypsin in Hanks' balanced salt solution (HBSS, Gibco 14175-095) for 15 min at 37° C. and dissociated mechanically by mild trituration with a fire-polished glass pipet in growth medium plus 2% heat-inactivated fetal bovine serum (FBS). The growth medium consisted of equal volumes of Dulbecco's minimal essential medium DMEM (Gibco 12100-046) and HAM's F12 nutrient mixture (Gibco 21700-075) supplemented with 33 mM glucose, 13 mM sodium bicarbonate, 5 mM HEPES, 2 mM glutamine, 25 μg/ml insulin, 100 μg/ml transferrin, 60 μM putrescine, 20 nM progesterone, 30 nM sodium selenite, 5 U/ml penicillin G and 5 μg/ml streptomycin. 24-well tissue culture plate was coated by adding 15 μg/ml poly-1-ornithine hydrobromide solution at 0.5 ml/well, incubated at room temperature for 1 hr. The coating solution was removed and the well washed 3 times with distilled water and one wash with HBSS. The dissociated cells were plated onto polyornithine-coated wells at 250,000-350,000 trypan blue-excluding viable cells per well in 500 μl of above medium containing 1% FBS. After 3 h when most of the cells had adhered to the bottom of the well, the medium was replaced with 500 μl of fresh medium without FBS. A serial dilution of the sample to be assayed for trophic activity was added to each well in duplicate at the time of medium change or within 24 h thereafter. Unless otherwise stated, cultures were incubated at 37° C. without any further medium change up to 7 days. Primary hindbrain cultures were prepared as described for the midbrain cultures except that the rostral raphe region (instead of the rostral mesencephalon) was dissected and trypsinized for 20 (instead of 15) min.
[^3H]DA uptake was measured in cultures at day 7, and all the solutions were maintained at 37° C. The growth medium was removed, and the cultures were rinsed twice with 0.25 ml of uptake buffer, which consists of HBSS (Gibco 11201-092) supplemented with 28 mM glucose, 15 mM HEPES, 1 mM ascorbic acid (an antioxidant), and […] pargyline (a monoamine oxidase inhibitor). The cultures were then incubated with 0.25 ml of fresh uptake buffer containing 50 nM [^3H]DA (NEN/DuPont) for 20 min at 37° C. [^3H]DA uptake was stopped by removing the incubation mixture, and cells were then washed twice with 0.5 ml of the uptake buffer at room temperature. To release [^3H]DA from the cells, the cultures were lysed with 0.2 ml of 0.1 N NaOH for 1 h at room temperature, the lysate was then added to 1 ml of Microscint-20 (Packard 6013621), and counted for radioactivity in a microplate scintillation counter (Packard TopCount, NXT). Background values were obtained by adding to the uptake buffer 0.5 mM GBR-12909, a specific inhibitor of the high-affinity uptake pump of the dopaminergic neurons, and were usually <5% of the ^3H uptake in untreated control cultures. Forskolin (Fk, 25 μM) was employed as a positive control.

[4] = system: TH^+ neurons; test: MPP^+ induced neurotoxicity in midbrain cultures; format: cell-based, rat; conditions: 2 μM MPP^+ for 36 h; 2.5 μM compound; control cultures lost 48%
Procedure: FIG. 34 depicts mechanism of compound A effect in midbrain cultures. 2.5 μM compound A was added at the time of plating. (A) Compound A reduces the rate of apoptosis of TH-positive cells. *p<0.05 versus Con, Student's t test. (B) Compound A protects TH-positive cells from MPP^+ induced neurotoxicity. Cultures at DIV 4 were treated with 2 μM MPP^+ (open bars) for 36 hrs, and processed for TH staining. *p<0.05 versus corresponding cultures not treated with MPP^+ (solid bars). #p<0.05 versus corresponding cultures without Compound A, Student's t test. Data represent averages (n=3) with SD shown in error bars.
Primary midbrain cultures were prepared from rat embryo ventral mesencephalon as described previously by Lin et al (1994). […]
The primary antibodies were: anti-TH monoclonal (1:400, Boehringer-Mannheim); anti-GFAP polyclonal (1:200, DAKO); anti-NSE polyclonal (1:2000, Polysciences Inc.); anti-tryptophan hydroxylase polyclonal (TPH) (1:500, Eugene Tech) and anti-islet-1 monoclonal (1:100, Developmental Studies Hybridoma Bank). […] Process-bearing TH-positive cells were counted at 100× magnification in consecutive fields covering the whole 16-mm-diameter culture well. GFAP-positive cells were counted in half the culture well. NSE-positive cells were counted in 3 photographed fields. […]

[5] = system: serotonergic neurons of hindbrain culture; test: Serotonin (5-HT) uptake assay in primary hindbrain cultures; format: cell-based, rat
[6] = system: islet-1^+ motoneurons; test: islet-1 immunostaining, motoneuron count in midbrain cultures; format: cell-based, rat; conditions: 2.5 μM; DIV 1, 2 and 3
Procedure: as §1
(§3) The primary antibodies were: anti-TH monoclonal (1:400, Boehringer-Mannheim); anti-GFAP polyclonal (1:200, DAKO); anti-NSE polyclonal (1:2000, Polysciences Inc.); anti-tryptophan hydroxylase polyclonal (TPH) (1:500, Eugene Tech) and anti-islet-1 monoclonal (1:100, Developmental Studies Hybridoma Bank). […] Process-bearing TH-positive cells were counted at 100× magnification in consecutive fields covering the whole 16-mm-diameter culture well. GFAP-positive cells were counted in half the culture well. NSE-positive cells were counted in 3 photographed fields.

[7] = system: NSE-positive cells; test: NSE immunostaining, total neuron count in midbrain cultures; format: cell-based, rat; conditions: 2.5 μM; DIV 0, 5 or 7; versus untreated
Procedure: as §1, §3

[8] = system: serotonergic neurons; test: Serotonin (5-HT) uptake assay in midbrain cultures; format: cell-based, rat; conditions: midbrain culture, DIV 8, concentration range that increased DA uptake
Procedure: as §2, with “After 3 h when most of the cells had adhered to the bottom of the well, the medium was replaced with 500 μl of fresh medium without FBS. A serial dilution of the sample to be assayed for trophic activity was added to each well in duplicate at the time of medium change or within 24 h thereafter. Unless otherwise stated, cultures were incubated at 37° C. without any further medium change up to 7 days. Primary hindbrain cultures were prepared as described for the midbrain cultures except that the rostral raphe region (instead of the rostral mesencephalon) was dissected and trypsinized for 20 (instead of 15) min.” left out

[9] = system: GABA-containing neurons; test: GABA uptake assay in midbrain cultures; format: cell-based, rat; conditions: midbrain culture, DIV 8, concentration range that increased DA uptake
Procedure: as §2, with “After 3 h when most of the cells had adhered to the bottom of the well, the medium was replaced with 500 μl of fresh medium without FBS. A serial dilution of the sample to be assayed for trophic activity was added to each well in duplicate at the time of medium change or within 24 h thereafter. Unless otherwise stated, cultures were incubated at 37° C. without any further medium change up to 7 days. Primary hindbrain cultures were prepared as described for the midbrain cultures except that the rostral raphe region (instead of the rostral mesencephalon) was dissected and trypsinized for 20 (instead of 15) min.” left out

[10] = system: GFAP-positive cells; test: GFAP immunostaining, astrocyte count in midbrain cultures; format: cell-based, rat; conditions: midbrain culture, DIV 7
Procedure: as §1, §3

[11] = system: TH-positive neurons; test: TH immunostaining and count of TH-positive neurons in midbrain cultures; format: cell-based, rat
Procedure: as §1, §3

[12] = system: midbrain dopaminergic neurons; conditions: Lin et al. 1993, 1994; cited from earlier work
[13] = Rattus norvegicus, Neuron, midbrain culture, read-out: DA uptake % of control

tyrosine hydroxylase (TH) immunoreactivity ([11]; mesencephalic cultures): upregulated
Molecule: O=C(/C=C/c1ccccc1Cl)Nc1ccc(S(=O)(=O)Nc2nccs2)cc1 [Compound A]
survival / number of TPH^+ neurons [1]: does not change either the number of TPH^+ cells nor the amount of serotonin uptake in hindbrain cultures; also recorded: did not promote the survival of neurons immunoreactive for the key serotonin-synthesizing enzyme TPH | reduction of the rate of apoptosis of TH^+ cells [2]: about 50% | DA uptake on conjoint treatment with GDNF ([3]; 2.5 μM compound A added to a maximally effective concentration of GDNF): additive effect; also recorded: increased DA uptake above that reached by either GDNF or compound A alone; also recorded: at least as potent as that of forskolin | activity at 2.5 µM [3, 13]: 240% | Emax ([3]; Rattus norvegicus, Neuron, DIV 6, varied between different experiments, read-out: maximal stimulation of DA uptake): 180 to 280% | concentration of maximal effect on DA uptake ([3]; dose-dependent effect, FIG. 32A, 7 DIV): around 2.5 μM | concentration at which the compound was toxic and decreased DA uptake ([3]; midbrain culture): above 10 μM | stimulation of DA uptake (in words) ([3]; midbrain culture, 7 DIV): stimulates dopamine (DA) uptake in a dose-dependent manner | loss of TH^+ neurons after MPP^+ [4]: 20% | cytotoxicity on the hindbrain culture (inhibition of serotonin uptake) ([5]; 10 μM): showed cytotoxicity on the hindbrain culture | serotonin uptake in hindbrain culture ([5]; DIV 8, concentrations necessary for increasing dopamine uptake in midbrain culture): does not change either the number of TPH^+ cells nor the amount of serotonin uptake in hindbrain cultures; also recorded: nor did it increase serotonin uptake in the hindbrain culture | number of islet-1^+ motoneurons [6]: 115-150 % of control | NSE-positive cell numbers [7]: does not increase total number of NSE^+ cells; also recorded: indistinguishable from the non-treated control wells | serotonin (5-HT) uptake [8]: does not lead to an increase in GABA or 5-HT uptake; also recorded: Neither GABA (FIG. 33C) nor serotonin (FIG. 33D) uptake was significantly affected | serotonin (5-HT) uptake ([8]; listed as CUR-162590): little, if any, effect | GABA uptake [9]: does not lead to an increase in GABA or 5-HT uptake; also recorded: Neither GABA (FIG. 33C) nor serotonin (FIG. 33D) uptake was significantly affected | GABA uptake ([9]; listed as CUR-162590): little, if any, effect | GFAP-positive cell numbers [10]: does not affect GFAP^+ cell number; also recorded: not affected | number of TH positive neurons (dopaminergic neuron survival) ([11]; 2.5-5 μM added once at the time of plating, day 7 or day 12): promotes survival of TH^+ neurons; also recorded: about twice as many DA neurons

Molecule: Cc1nc(NS(=O)(=O)c2ccc(NC(=O)/C=C/c3ccccc3Cl)cc2)sc1C(=O)O [Y′′′]
activity at 10 µM ([3]; Rattus norvegicus, Neuron, compound concentration 10 μM, midbrain culture, read-out: DA uptake % of control): 160%

Molecule: O=C(/C=C/c1cccc(Cl)c1Cl)Nc1ccc(S(=O)(=O)Nc2nccs2)cc1 [Y′′′′]
activity at 0.6 µM ([3]; Rattus norvegicus, Neuron, compound concentration 0.6 μM, midbrain culture, read-out: DA uptake % of control): 180%

Molecule: COc1ccccc1/C=C/C(=O)Nc1ccc(S(=O)(=O)Nc2nc[nH]n2)cc1 [Y″]
activity at 2.5 µM [3, 13]: 180%

Molecule: O=C(/C=C/c1ccccc1F)Nc1ccc(S(=O)(=O)Nc2ccccn2)cc1 [Z′′′]
activity at 2.5 µM [3, 13]: 140%

Molecule: COc1ccc(/C=C/C(=O)Nc2ccc(S(=O)(=O)Nc3nccs3)cc2)c(OC)c1 [Z′′′′]
activity at 1.25 µM [3, 13]: 170%

Molecule: O=C(/C=C/c1ccccc1I)Nc1ccc(S(=O)(=O)Nc2nccs2)cc1 [Z″]
activity at 1.25 µM [3, 13]: 300%

B1: GDNF: glial cell line-derived neurotrophic factor (protein, UniProt P39905 78-211, looked up)
Glial cell line-derived …: SPDKQMAVLPRRERNRQAAAANPENSRGKGRRGQRGKNRGCVLTAIHLNVTDLGLGYETKEELIFRYCSGSCDAAETTYDKILKNLSRNRRLVSDKVGQACCRPIAFDDDLSFLDDNLVYHILRKHSAKRCGCI
concentration at which the effect on DA uptake plateaus [12]: around 1 ng/ml
